The text below walks through data of US11117888B2, “Irreversible inhibitors of pyruvate kinase M2 and the use thereof” (China Medical University, priority 2020, dated 2021).

Each structure is given as a SMILES string.

The test system of this experiment is PC-9 cells. In words: Seahorse Glycolysis Stress assay (ECAR and OCR). Type of experiment: cell-based, human. An excerpt:
In light of the role of PKM2 in promoting glycolysis, we hypothesized that the antitumor activity of compound 1 might, in part, be attributable to its ability to reverse the glycolytic phenotype (i.e., Warburg effect) of cancer cells. Accordingly, we examined the effects of compound 1 on the extracellular acidification rate (ECAR) and cellular oxygen consumption rate (OCR) in PC-9 cells, which represent key bioenergetic parameters of glycolysis (lactate production) and mitochondrial respiration (oxidative phosphorylation), respectively, using a commercial kit (Agilent Seahorse XF Glycolysis Stress Test Kit). In the ECAR measurement, glucose, oligomycin (an ATP synthetase inhibitor), and 2-deoxyglucose (2-DG; a hexokinase/glycolysis inhibitor) were added in tandem to glucose-starved cells at different time intervals to activate or interfere with glycolysis, thereby allowing the calculation of the glycolytic flux and glycolytic capacity. […] Meanwhile, the OCR response, a parameter for oxidative phosphorylation, was concurrently monitored. […] It is noteworthy that when glucose was added to the basal medium, there was a decrease in the OCR in the control group. This phenomenon was previously referred to as the “Crabtree effect”, i.e., when glucose is added to activate glycolysis, it might be more favorable for cells to generate ATP through substrate-level phosphorylation, thereby reducing the need of oxidative phosphorylation. However, this glucose-induced drop in OCR became less apparent in the presence of compound 1, which might be associated with the ability of compound 1 to block glycolysis.
Glycolysis Stress assay. Extracellular acidification rate (ECAR) and oxygen consumption rate (OCR) were measured using a Seahorse Bioscience XF96 extracellular flux analyzer (Seahorse Bioscience) according to the manufacturer's protocol. PC-9 ells (5×10^4) were seeded in 96 Seahorse XF Cell Culture Microplate with normal growth medium 24 hours before treatment with compounds. The cells were treated with DMSO or compound 1 for 4 hours at 37° C. under 5% CO2 atmosphere. […]

With `C#CC(=O)Nc1ccc(-n2nc(CCC(=O)NC)cc2-c2ccc(-c3ccc(C(F)(F)F)cc3)cc2)cc1` [compound 1, N-(4-(3-(3-(Methylamino)-3-oxopropyl)-5-(4′-(trifluoromethyl)-[1,1′-biphenyl]-4-yl)-1H-pyrazol-1-yl)phenyl)propiolamide], for the setting “0.25-1 μM, 4 hours”, the “glycolytic acidification (ECAR)” value is “suppressed the glycolytic acidification in a concentration-dependent manner” and the “non-glycolytic acidification (ECAR)” value is reported as “no appreciable effect”. Also, the “oxygen consumption rate (OCR), basal state” value (prior to glucose supplementation, relative to DMSO) is “increase oxygen consumption in the basal state”.
